According to PubChem BioAssay AID179 (DTP/NCI, 2004):
Activity calls are given as the source filed them.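 How the source made its calls: active means compounds giving half or more protection of infected cells from virus-caused growth loss, again on retest; inactive means the rest.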 Where a SMILES comes first, the peptide text is derived from it. [ ]: non-standard residue; d: D form. ξ: configuration not given here. Ac5c = NC1(C(=O)O)CCCC1; ξS = NC(CO)C(=O)O

Tested on: CEM cells HIV-1 protection, formazan growth assay
Assay: NCI AIDS Antiviral Assay
Settings: for IC50: measured here: growth of uninfected CEM cells
How it was run: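 Screen of anti-HIV-1 activity in human CEM cells using a formazan-based growth measurement at five drug concentrations. Hits with 50% or greater protection were repeated, and confirmation required reproducible complete protection.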

SMILES | EC50 [µM] | IC50 [µM] | outcome
CC(C)CCC[C@@H](C)[C@H]1CC[C@H]2[C@@H]3CC[C@H]4C[C@@H](CCC=C(c5cc(Cl)c(O)c(C(=O)O)c5)c5cc(Cl)c(O)c(C(=O)O)c5)CC[C@]4(C)[C@H]3CC[C@]12C | 37.2 | 295 | 
CCOc1c(OC)cc(-c2nc3n(n2)C(=O)C(CC)S3)cc1OC (stereo unspecified) | > 200 | > 200 | 
N#CC(NNC(=O)Cc1ccccc1)c1ccc([N+](=O)[O-])cc1 (stereo unspecified) | > 115 | > 115 | 
CC(C)=C[C@@H]1C[C@H](C)c2c(O)cc(C)c3c2C1=C(C)C(=O)C3=O | > 200 | 22.4 | 
O=C(O)CC1NC(/C(=C/c2ccccc2)NC(=O)c2ccccc2)OC1=O (stereo unspecified) | > 200 | 9.12 | 
CC1=C(C(=O)NCC(C)O)CC(C(=O)NCC(C)O)=C(C)N1 (stereo unspecified) | > 200 | > 200 | 
COC(=O)C1C(c2ccccc2)=N[C@@H](c2ccccc2)[C@H]1C(=O)OC (stereo partly specified) | > 11.2 | > 11.2 | 
Cc1cc(C)nc(NS(=O)(=O)c2ccc(Nc3c4ccc(Cl)cc4nc4ncccc34)cc2)n1 |  |  | inactive
N#C/C(=C\c1ccc(O)c(O)c1)C(=S)NCc1ccccc1 | > 200 | 32.4 | 
CC1CC/C(=[N+](/C)Nc2ccc([N+](=O)[O-])cc2[N+](=O)[O-])C2CCC(C(C)C(=O)O)C=C12 (stereo unspecified) |  |  | inactive
NC(=S)/N=C/c1c(O)c2ccccc2oc1=O | > 55 | > 55 | 
C=C[C@@H]1OC(=O)O[C@H]1CO | > 200 | > 200 | 
C/C(CC(=O)Nc1cc(C)ccc1C)=N/N=C(N)N | > 52.5 | > 52.5 | 
CCCCN(CC)C(=O)C1=C(C)NC(C)=C(C(=O)N(CC)CCCC)C1 | > 200 | 135 | 
CCOC1N(C2C=CC(CO)O2)C(=O)NC(=O)C1(C)Br (stereo unspecified) | > 13.5 | > 13.5 | 
O=C(O)c1cc(Br)cc(SSc2cc(Br)cc(C(=O)O)c2O)c1O | 102 | 107 | 
COc1cc(Br)c(OC)c2c(OC)cc(C)cc12 | > 200 | 35.5 | 
COc1cc(O)c2c(=O)c3ccccc3n(C)c2c1 | > 200 | 11.2 | 
O=C1c2c(O)ccc(O)c2C(=O)c2c(NCCNC(=O)C(O)C(O)C(O)C(O)CO)ccc(NCCNC(=O)C(O)C(O)C(O)C(O)CO)c21 (stereo unspecified) | > 100 | 0.0316 | 
COc1ccc(CNc2nc3cc(C(F)(F)F)ccc3nc2C(=O)O)cc1 | > 200 | 38.9 | 
Cc1ccc(C2=Nc3ccccc3SC(c3cccc4c3OCO4)C2)cc1 (stereo unspecified) | > 14.1 | > 14.1 | 
NC(=S)N/C=C\c1nc2ccccc2[nH]c1=O | > 200 | > 200 | 

SMILES | EC50 [µM] | IC50 [µM] | outcome
Cn1c([N+](=O)[O-])cnc1CSc1ccc(C#N)cc1 | 117 | > 200 | 
N#C/C(=C1\SCC(=O)N1c1ccccc1)c1nc2ccccc2[nH]1 | > 4.37 | > 4.37 | 
CCOC(=O)CC1(N)CC2c3ccccc3OC(=O)C2C(=O)N1 (stereo unspecified) | > 200 | > 200 | 
NC(=O)NO |  | 112 | inactive
O=[N+]([O-])C=C1c2ccccc2-c2ccccc21 |  |  | inactive
OCCN(CC(O)C(O)CN(CCO)C(=S)S)C(=S)S (stereo unspecified) | > 58.9 | > 58.9 | 
CN=C(NCCCOC)c1ccc(NC(=O)c2ccc(C(=O)Nc3ccc(C(=NC)NCCCOC)cc3)c([N+](=O)[O-])c2)cc1 | > 200 | 19.1 | 
CN1C(=O)N(C)C(O)C(Cl)(Cl)C1=O (stereo unspecified) | > 200 | > 200 | 
NC(=O)c1cc2cc(O)c(O)cc2cn1 | > 209 | 12.6 | 
[B-][N+]1(C)CC[N+]([B-])(C)CC1 (stereo unspecified) | > 200 | > 200 | 
CCOC(=O)C(CO)NC(=O)C1(NC(C)=O)CCCC1 (stereo unspecified) (Ac-[Ac5c]-[ξS]-OEt) | > 200 | > 200 | 
NC1=NC(=O)CS1 | > 2140 | > 2140 | 
COC(=O)c1ccc(C)cc1C1CN=NC12Cc1c(C)cccc1C2=O (stereo unspecified) | > 200 | > 200 | 
CC1(C)CC(N(C(=O)/C=C/c2ccc([N+](=O)[O-])o2)C2CCCCC2)CC(C)(C)N1 | > 32.4 | 17.4 | 
Nc1nc(Cl)cc(NCC2(CO)CCC(O)C2)n1 (stereo unspecified) | > 200 | > 200 | 
N#CC1CCCC2SC(F)(F)C(F)(F)C12 (stereo unspecified) | > 200 | 33.1 | 
O=C1CCC(=O)c2ccccc2N1 | > 1020 | > 1020 | 
Cc1cccc2c3ccc4c(c3n(C)c12)C(=O)C=CC4=O | > 49 | 24.5 | 
CCOC(=O)C[C@](C)(O)C1CCCN1 (stereo partly specified) |  |  | inactive
O=C(NC(=O)c1cn(CCNCCO)c(=O)[nH]c1=O)OCc1ccccc1 |  |  | inactive
O=c1cccc2n1C[C@H]1C[C@@H]2CN2CCCC[C@H]12 | > 200 | > 200 | 
